{"source": "patent US20250381202A1", "about": "“PRODRUG KIT FOR MULTI-PRONGED CHEMOTHERAPY” (priority 2022, published 2025)", "origin": "cited, not measured here", "conditions": "in vivo tumor model, area under the curve until the drug concentration reaches zero", "note": "Like-named read-outs stand apart in the source and are kept apart here.", "data": [{"smiles": "COc1cccc2c1C(=O)c1c(O)c3c(c(O)c1C2=O)C[C@@](O)(C(=O)CO)C[C@@H]3O[C@H]1C[C@H](N)[C@H](O)[C@H](C)O1", "note": "[doxorubicin, Doxorubicin]", "values": [{"measurement": "AUC0-t", "setting": "In blood", "value": 80.9, "unit": "µg·min/mL"}, {"measurement": "AUC0-t", "setting": "Tumor Mean PK", "value": 33.4, "unit": "µg·min/mL"}]}]}
